# Laboratory results taken from patent US20170202939A1, “PERSONALIZED CANCER VACCINES AND METHODS THEREFOR” (Washington University, priority 2014, published 2017).
# No end group written: not given here.
# What was measured:
# [1] = test system: neoantigen-specific CD8+ T cells; assay: immune monitoring of vaccinated patients, HLA/peptide dextramer (tetramer) assay on cultured PBMC; assay type: in vivo, human; details: for Immunogenicity: AAS-directed CD8+ T cell response in vaccinated patient; for Spontaneous Immunity: pre-vaccine (naturally-occurring) CD8+ T cell response, immune monitoring assay
# Protocol: Immunologic monitoring (Examples 1-10). Immunologic analysis to evaluate the kinetics and magnitude of T cell response to gp100 peptides was performed using PBMCs collected weekly (prior to vaccination and until week 21. Fresh PBMCs obtained by Ficoll-Hypaque gradient centrifugation were adjusted to 2×10^6 cells/ml in Stemline media (Sigma-Aldrich) containing 5% human AB-serum, and dispersed at 1 ml/well in 24-well plates. Cultures were set up for the gp100 peptides and the CMV pp65 peptide (positive peptide control). Cultures were pulsed with 40 μg/ml peptide and 50 U/ml IL-2 fed starting at 48 hours and every other day thereafter. On day 12 (peak of response; the inventors' unpublished observation), cultures were harvested, counted, and stained for flow cytometry analysis. To assess the antigen-specific T cell frequency, cells were stained with HLAA*0201/peptide tetramers (Beckman Coulter) for 30 minutes at room temperature, followed by addition of FITC-conjugated CD4, CD14, CD19, and CD56 and allophycocyanin-conjugated CD8 (Invitrogen) for 15 minutes at 4° C. Cells were washed and resuspended in FACS buffer, and 7AAD was added 5 minutes before analysis. Control CMV pp65-specific CD8+ T cells were detected in all CMV-seropositive patients before and after immunization. A negative HLA-A*0201/HIV gag peptide tetramer control was included. 25,000 events in the CD8+ gate were collected using a hierarchical gating strategy that included FSC/SSC and excluded 7AAD+ (dead) cells and CD4+CD14+CD19+CD56+ cells. Data were acquired and analyzed using Flow-Jo software.
# To examine the kinetics and magnitude of T cell immunity to AAS peptides upon vaccination, peripheral blood mononuclear cells (PBMC) were collected prior to vaccination and weekly thereafter. The CD8+ T cell response to each peptide was analyzed using a HLA-A*02:01/AAS-peptide dextramer assay after a single round of in vitro stimulation. FIG. 30A illustrates kinetics of immune responses to neoantigens. Time is recorded in weeks (0 indicates pre-vaccination). Culture conditions and staining details are described infra. Antigen-specific numbers were calculated based on dextramer percentage and total live cell yields. Immunologic analysis to evaluate the kinetic and magnitude of T cell response to AAS-encoding and gp100-derived peptides was performed using PBMC collected weekly, starting before DC vaccination (Pre-vaccine in the figures) as described (Carreno, B. M., et al., J. Clin. Invest., 123, 3383-3394, 2013). Briefly, fresh PBMC obtained by Ficoll-Paque PLUS gradient centrifugation were cultured with 40 ug/mL peptide and IL-2 (50 U/mL). On day 10 (peak of response, unpublished data, labeled “Post-Vaccine” in the figures), neoantigen specific T cell frequencies were determined by staining with HLA-A*02:01/peptide dextramers (Immudex), followed by addition of FITC-CD4, -CD14, -CD19 (Invitrogen) and ALEXA® 488-CD56 (BD Pharmigen), APC-CD8 (Invitrogen). Cells were washed, resuspended in FACS buffer containing 7AAD. Twenty five thousand events in the CD8+ gate were collected using a hierarchical gating strategy that included FSC/SSC and excluded 7AAD-positive (dead cells) and CD4/14/19/56-positive cells. PBMC/CD8+ T cells derived from an unrelated HLA-A*02:01 patient were used as negative controls for assessing specificity of HLA-A*02:01/AAS-peptide dextramers (data not shown). Data were acquired and analyzed using Flow-Jo software. […] FIG. 30B illustrates the frequency of neoantigen specific T cells in CD8+ populations isolated directly from PBMC samples and after ex-vivo expansion using autologous DC and artificial antigen presenting cells. For dominant neoantigens TMEM48 F169L, SEC24A P469L and EXOC8 Q656, results are shown for samples obtained before vaccination (Pre-vaccine) and after 3 vaccine doses (Post-vaccine). For remaining neoantigens, results obtained with post-vaccine PBMC samples are shown. […]
# HLA-A*02:01 [2] = target: T1, HLA-A*02:01 (Homo sapiens, UniProt P04439, D140Y/D185E/D98H/E176V/E277Q/G131W/G231S/I119V/I121R/I166T/I218V/L300P/L318F/N151K/N90K/P208A/P217A/Q86G/Q94H/R138H/R169H/T345S); assay: fluorescence polarization-based competitive peptide binding assay; details: fluorescence polarization-based competitive peptide-binding assay; high affinity log(IC50; nM) <3.7; read-out: Experimental Affinity log(IC50) (converted)
# T1 construct: purchased Pure Protein, L.L.C
# HLA-A*02:01 [3] = target: T2, HLA-A*02:01 (human); assay: fluorescence polarization-based competitive peptide-binding assay
# T2 construct: The form of the HLA molecule in the fluorescence polarization assay is not described; also called HLA-A2
Molecule,IC50 (HLA-A*02:01 [2]) [nM],"log(IC50, nM) (HLA-A*02:01 [3])",Immunogenicity [1],Spontaneous Immunity [1],also measured
"G280-9V: HLA-A*0201-restricted gp100 melanoma antigen-derived peptide, positive control for vaccination [reference compound]",,,,,"T cell response upon vaccination ([1]; post-vaccine PBMC, dextramer assay): enhanced in patients MEL21 and MEL218 and revealed in patient MEL38; pre-existing (naturally occurring) T cell immunity ([1]; pre-vaccine PBMC samples after in vitro stimulation): Two (MEL21 and MEL218) of the three patients had pre-existing immunity"
LLSIVPCTV,1230,,No,No,
VLLRALPVL,1120,,No,No,
QLDKCSAFV,2290,,No,No,
QTIDNIVFL,1550,,No,No,
FVSALCMFL,,,No,No,
QTIDNIVFL (Synthetic nonamer carrying a tumor amino acid substitution) [ARFGEF1 F1637L AAS peptide QTIDNIVFL (MEL21)],,"3.19 log(IC50, nM)",,,
KLMNIQQKL (Synthetic nonamer carrying a tumor amino acid substitution) [AKAP13 Q285K AAS peptide KLMNIQQKL (MEL38)],,"3.07 log(IC50, nM)",,,
VLLRALPVL (Synthetic nonamer carrying a tumor amino acid substitution) [MRPS17 P167L AAS peptide VLLRALPVL (MEL218)],,"3.05 log(IC50, nM)",,,
"IIGAGPAEV [KDM1B G394E AAS peptide IIGAGPAEV, anchor-modified at P9 (MEL21)]",,"3.82 log(IC50, nM)",,,
CLNEYHLFL (Synthetic nonamer carrying a tumor amino acid substitution) [TMEM48 F169L AAS peptide CLNEYHLFL (MEL21)],,"3.09 log(IC50, nM)",,,
YISKCWDYA (Synthetic nonamer carrying a tumor amino acid substitution) [HSD17B7 H108Y AAS peptide YISKCWDYA (MEL38)],,"4.28 log(IC50, nM)",,,
LLSIIFFPA (Synthetic nonamer carrying a tumor amino acid substitution) [PHKA2 S264F AAS peptide LLSIIFFPA (MEL21)],,"3.9 log(IC50, nM)",,,
LLSIVPCTV (Synthetic nonamer carrying a tumor amino acid substitution) [GPX8 L27P AAS peptide LLSIVPCTV (MEL21)],,"3.09 log(IC50, nM)",,,

# Now from value to molecule, other results behind:
IC50 (HLA-A*02:01 [2]) [nM],"log(IC50, nM) (HLA-A*02:01 [3])",Molecule,Immunogenicity [1],Spontaneous Immunity [1],also measured
5370,,KLANPLPYT,No,No,
19100,,YISKCWDYA,No,No,
10500,,IMAHCILDL,No,No,
25700,,AVIDAYTEI,No,No,
7940,,LLSIIFFPA,No,No,
6610,,IIGAGPAEV,,,
3390,,CLFPQTLAA,No,No,
1910,,HLYASLSRV,,,
,"3.53 log(IC50, nM)",CLFPQTLAA [PRKCDBP S153F AAS peptide CLFPQTLAA (MEL38)],,,
,"3.1 log(IC50, nM)",QLSCISTYV (Synthetic nonamer carrying a tumor amino acid substitution) [OR8B3 T190I AAS peptide QLSCISTYV (MEL38)],,,
,"2.35 log(IC50, nM)",MLGEQLFPL (Synthetic nonamer carrying a tumor amino acid substitution) [PABPC1 R520Q AAS peptide MLGEQLFPL (MEL218)],,,
,"2.35 log(IC50, nM)","AMFWSVPTV [TKT R438W AAS peptide AMFWSVPTV, anchor-modified at P9 (MEL21)]",,,
,"4.02 log(IC50, nM)",IMAHCILDL (Synthetic nonamer carrying a tumor amino acid substitution) [SRP9 I64M AAS peptide IMAHCILDL (MEL218)],,,
,"2.68 log(IC50, nM)",FLYNLLTRV (Synthetic nonamer carrying a tumor amino acid substitution) [SEC24A P469L AAS peptide FLYNLLTRV (MEL38)],,,
,"3.73 log(IC50, nM)",KLANPLPYT (Synthetic nonamer carrying a tumor amino acid substitution) [SMOX K499N AAS peptide KLANPLPYT (MEL218)],,,
,"3.06 log(IC50, nM)",IILVAVPHV [EXOC8 Q656P AAS peptide IILVAVPHV (MEL218)],,,
,"3.36 log(IC50, nM)",QLDKCSAFV (Synthetic nonamer carrying a tumor amino acid substitution) [UTRN Q1058K AAS peptide QLDKCSAFV (MEL38)],,,
,"4.41 log(IC50, nM)",AVIDAYTEI (Synthetic nonamer carrying a tumor amino acid substitution) [LARP7 N515D AAS peptide AVIDAYTEI (MEL218)],,,
,"3.18 log(IC50, nM)",FVSALCMFL [ARFGEF1 R782C AAS peptide FVSALCMFL (MEL38)],,,
,"3.28 log(IC50, nM)","HLYASLSRV [MRPS5 P59L AAS peptide HLYASLSRV, anchor-modified at P9 (MEL218)]",,,
